Values quoted from earlier work as cited in US9814782B2, “Modified antibody in which motif comprising cysteine residue is bound, modified antibody-drug conjugate comprising the modified antibody, and production method for same” (Alteogen Inc., priority 2012, dated 2017).
pIC50: −log10 of the molar value.

Conditions: known value; read-out: IC50 value in a cell proliferation inhibition assay

Q: With Auristatin as the substance, how does the pIC50 read?
A: Its pIC50 is 9.52 to 9.70.
